Patent publication US20240384350A1, “METHODS OF TREATING CANCER WITH KINASE INHIBITORS” (BOARD OF REGENTS, THE UNIVERSITY OF TEXAS SYSTEM, priority 2021, published 2024)

Assays:
Assay in all cases: Ba/F3 drug screening, Cell Titer Glo, IC50 Mut/WT
Format in all cases: cell-based
[1] = target: T1, EGFR L858R T790M L718V (Homo sapiens, UniProt P00533, L718V/L858R/T790M); conditions: T790M-like-3R, 72 hours
T1 construct: expressed in transfected cells; host or cells: Ba/F3

[2] = target: T2, EGFR L858R T790M V843I (Homo sapiens, UniProt P00533, L858R/T790M/V843I); conditions: T790M-like-3S, 72 hours
T2 construct: expressed in transfected cells; host or cells: Ba/F3

[3] = system: EGFR I740dupIPVAK; conditions: PACC; I740dupIPVAK; Ba/F3; 72 hours
[4] = target: T3, EGFR L861Q (Homo sapiens, UniProt P00533, L861Q); conditions: Classical-Like, 72 hours
T3 construct: expressed in transfected cells; host or cells: Ba/F3 cells, retroviral pBabe-Puro vector

[5] = target: T4, EGFR S768dupSVD V769M (Homo sapiens, UniProt P00533, INS768MDS/V769M); conditions: Ex20, 72 hours
T4 construct: expressed in transfected cells; host or cells: Ba/F3 cells, retroviral pBabe-Puro vector (vector made by GeneScript from EGFR S768dupSVD, c.2305G > A)

[6] = target: T5, EGFR L861R (Homo sapiens, UniProt P00533, L861R); conditions: Classical-Like, 72 hours
T5 construct: expressed in transfected cells; host or cells: Ba/F3 cells, retroviral pBabe-Puro vector (vector made by GeneScript from EGFR WT)

[7] = target: T6, EGFR R776C (Homo sapiens, UniProt P00533, R776C); conditions: PACC; R776C; Ba/F3; 72 hours
T6 construct: host or cells: Ba/F3

[8] = target: T7, EGFR L718Q (Homo sapiens, UniProt P00533, L718Q); conditions: PACC; L718Q; Ba/F3; 72 hours
T7 construct: expressed in transfected cells; host or cells: Ba/F3
Description: (§1) Data represent the ratio of the IC50 value for a given TKI for cells with a PACC EGFR mutation to the IC50 value for cells with wildtype EGFR.
(§2) Ba/F3 cell generation, drug screening, and IC50 approximations. Ba/F3 cells were obtained as a gift from Dr. Gordon Mills (MD Anderson Cancer Center), and maintained in RPMI (Sigma) containing 10% FBS, 1% penicillin/streptomycin, and 10 ng/ml recombinant mIL-3 (R&D Biosystems). To establish stable Ba/F3 cell lines, Ba/F3 cells were transduced with retroviruses containing mutant EGFR plasmids for 12-24 hours.
(§3) After 48-72 hours of transduction, 2 μg/ml puromycin (Invitrogen) was added to Ba/F3 cell lines in complete RPMI. To select for EGFR positive cell lines, cells were stained with PE-EGFR (Biolegend) and sorted by FACS. After sorting, EGFR positive cells were maintained in RPMI containing 10% FBS, 1% penicillin/streptomycin, and 1 ng/ml EGF to support cell viability. Drug screening was performed as previously described^41,42. Shortly, cells were plated in 384-well plates (Greiner Bio-One) at 2000-3000 cells per well in technical triplicate. Seven different concentrations of TKIs or DMSO vehicle were added to reach a final volume of 40 μL per well. After 72 hours, 11 μL of Cell Titer Glo (Promega) was added to each well. Plates were incubated for a minimum of 10 minutes, and bioluminescence was determined using a FLUOstar OPTIMA plate reader (BMG LABTECH). Raw bioluminescence values were normalized to DMSO control treated cells, and values were plotted in GraphPad Prism. […] Drug screens were performed in technical triplicate on each plate and either duplicate or triplicate biological replicates.

[9] = target: T8, EGFR L718Q T790M (Homo sapiens, UniProt P00533, L718Q/T790M); conditions: T790M-like-3R, 72 hours
T8 construct: expressed in transfected cells; host or cells: Ba/F3

[10] = target: T9, EGFR R776H (Homo sapiens, UniProt P00533, R776H); conditions: PACC; R776H; Ba/F3; 72 hours
T9 construct: host or cells: Ba/F3

[11] = target: T10, EGFR G724S T790M (Homo sapiens, UniProt P00533, G724S/T790M); conditions: T790M-like-3R, 72 hours
T10 construct: expressed in transfected cells; host or cells: Ba/F3

[12] = target: T11, EGFR Ex19del/C797S (Homo sapiens, UniProt P00533, C797S/DEL746-750); conditions: PACC; Ex19del/C797S; Ba/F3; 72 hours
T11 construct: expressed in transfected cells; host or cells: Ba/F3
Description: as §1, §2, §3

[13] = target: T12, EGFR L747P (Homo sapiens, UniProt P00533, L747P); conditions: PACC; L747P; Ba/F3; 72 hours
T12 construct: expressed in transfected cells; host or cells: Ba/F3
Description: as §1, §2
After 48-72 hours of transduction, 2 μg/ml puromycin (Invitrogen) was added to Ba/F3 cell lines in complete RPMI. To select for EGFR positive cell lines, cells were stained with PE-EGFR (Biolegend) and sorted by FACS. After sorting, EGFR positive cells were maintained in RPMI containing 10% FBS, 1% penicillin/streptomycin, and 1 ng/ml EGF to support cell viability. Drug screening was performed as previously described^41,42. Shortly, cells were plated in 384-well plates (Greiner Bio-One) at 2000-3000 cells per well in technical triplicate. Seven different concentrations of TKIs or DMSO vehicle were added to reach a final volume of 40 μL per well. After 72 hours, 11 μL of Cell Titer Glo (Promega) was added to each well. Plates were incubated for a minimum of 10 minutes, and bioluminescence was determined using a FLUOstar OPTIMA plate reader (BMG LABTECH). Raw bioluminescence values were normalized to DMSO control treated cells, and values were plotted in GraphPad Prism. […] Drug screens were performed in technical triplicate on each plate and either duplicate or triplicate biological replicates. […] Statistical differences between groups were determined by ANOVA as described in the figure legends.

[14] = target: T13, EGFR G724S (Homo sapiens, UniProt P00533, G724S); conditions: PACC; G724S; Ba/F3; 72 hours
T13 construct: expressed in transfected cells; host or cells: Ba/F3

[15] = target: T14, EGFR S768I (Homo sapiens, UniProt P00533, S768I); conditions: PACC; S768I; Ba/F3; 72 hours
T14 construct: expressed in transfected cells; host or cells: Ba/F3

[16] = target: T15, EGFR L833V (Homo sapiens, UniProt P00533, L833V); conditions: Classical-Like, 72 hours
T15 construct: expressed in transfected cells; host or cells: Ba/F3 cells, retroviral pBabe-Puro vector

[17] = target: T16, EGFR K754E (Homo sapiens, UniProt P00533, K754E); conditions: Classical-Like, 72 hours
T16 construct: expressed in transfected cells; host or cells: Ba/F3 cells, retroviral pBabe-Puro vector
Description: Data represent the ratio of the IC50 value for a given TKI for cells with a classical-like EGFR mutation to the IC50 value for cells with wildtype EGFR.
as §2
After 48-72 hours of transduction, 2 μg/ml puromycin (Invitrogen) was added to Ba/F3 cell lines in complete RPMI. To select for EGFR positive cell lines, cells were stained with PE-EGFR (Biolegend) and sorted by FACS. After sorting, EGFR positive cells were maintained in RPMI containing 10% FBS, 1% penicillin/streptomycin, and 1 ng/ml EGF to support cell viability. […] Shortly, cells were plated in 384-well plates (Greiner Bio-One) at 2000-3000 cells per well in technical triplicate. Seven different concentrations of TKIs or DMSO vehicle were added to reach a final volume of 40 μL per well. After 72 hours, 11 μL of Cell Titer Glo (Promega) was added to each well. Plates were incubated for a minimum of 10 minutes, and bioluminescence was determined using a FLUOstar OPTIMA plate reader (BMG LABTECH). Raw bioluminescence values were normalized to DMSO control treated cells, and values were plotted in GraphPad Prism. […] Drug screens were performed in technical triplicate on each plate and either duplicate or triplicate biological replicates.

[18] = target: T17, EGFR V769L (Homo sapiens, UniProt P00533, V769L); conditions: PACC; V769L; Ba/F3; 72 hours
T17 construct: expressed in transfected cells; host or cells: Ba/F3

[19] = target: T18, EGFR Ex19del/L792H (Homo sapiens, UniProt P00533, DEL746-750/L792H); conditions: PACC; Ex19del/L792H; Ba/F3; 72 hours
T18 construct: expressed in transfected cells; host or cells: Ba/F3
Description: as §1, §2, §3

[20] = target: T19, EGFR L858R/T790M/C797S (Homo sapiens, UniProt P00533, C797S/L858R/T790M); conditions: T790M-like-3R, 72 hours
T19 construct: expressed in transfected cells; host or cells: Ba/F3

[21] = target: T20, EGFR S768I/T790M (Homo sapiens, UniProt P00533, S768I/T790M); conditions: T790M-like-3S, 72 hours
T20 construct: expressed in transfected cells; host or cells: Ba/F3

[22] = target: T21, EGFR S768I/V769L (Homo sapiens, UniProt P00533, S768I/V769L); conditions: PACC; S768I/V769L; Ba/F3; 72 hours
T21 construct: host or cells: Ba/F3

[23] = target: T22, EGFR G719A/R776C (Homo sapiens, UniProt P00533, G719A/R776C); conditions: PACC; G719A/R776C; Ba/F3; 72 hours
T22 construct: expressed in transfected cells; host or cells: Ba/F3
Description: as §1, §2, §3

[24] = target: T23, EGFR E709K L858R (Homo sapiens, UniProt P00533, E709K/L858R); conditions: Classical-Like, 72 hours
T23 construct: expressed in transfected cells; host or cells: Ba/F3 cells, retroviral pBabe-Puro vector

[25] = target: T24, EGFR L858R G724S (Homo sapiens, UniProt P00533, G724S/L858R); conditions: PACC; L858R G724S; Ba/F3; 72 hours
T24 construct: expressed in transfected cells; host or cells: Ba/F3 (retroviral transduction, pBabe-Puro based vectors)

[26] = target: T25, EGFR Ex19del L718V (Homo sapiens, UniProt P00533, DEL746-750/L718V); conditions: PACC; Ex19del L718V; Ba/F3; 72 hours
T25 construct: expressed in transfected cells; host or cells: Ba/F3

ratio of IC50 for cells with mutant EGFR to IC50 for cells with wildtype EGFR (Mut/WT) [1]: 20.65
ratio of IC50 for cells with mutant EGFR to IC50 for cells with wildtype EGFR (Mut/WT) [2]: 20.06
ratio of IC50 for cells with mutant EGFR to IC50 for cells with wildtype EGFR (Mut/WT) [3]: 0.01376
ratio of IC50 for cells with mutant EGFR to IC50 for cells with wildtype EGFR (Mut/WT) [4]: 0.002064
ratio of IC50 for cells with mutant EGFR to IC50 for cells with wildtype EGFR (Mut/WT) [5]: 3.097
ratio of IC50 for cells with mutant EGFR to IC50 for cells with wildtype EGFR (Mut/WT) [6]: 0.001653
ratio of IC50 for cells with mutant EGFR to IC50 for cells with wildtype EGFR (Mut/WT) [7]: 0.1215
ratio of IC50 for cells with mutant EGFR to IC50 for cells with wildtype EGFR (Mut/WT) [8]: 0.3828
ratio of IC50 for cells with mutant EGFR to IC50 for cells with wildtype EGFR (Mut/WT) [9]: 4.784
ratio of IC50 for cells with mutant EGFR to IC50 for cells with wildtype EGFR (Mut/WT) [10]: 0.001367
ratio of IC50 for cells with mutant EGFR to IC50 for cells with wildtype EGFR (Mut/WT) [11]: 12.05
ratio of IC50 for cells with mutant EGFR to IC50 for cells with wildtype EGFR (Mut/WT) [12]: 0.01762
ratio of IC50 for cells with mutant EGFR to IC50 for cells with wildtype EGFR (Mut/WT) [13]: 0.2972
ratio of IC50 for cells with mutant EGFR to IC50 for cells with wildtype EGFR (Mut/WT) [14]: 0.2379
ratio of IC50 for cells with mutant EGFR to IC50 for cells with wildtype EGFR (Mut/WT) [15]: 17.66
ratio of IC50 for cells with mutant EGFR to IC50 for cells with wildtype EGFR (Mut/WT) [16]: 0.06272
ratio of IC50 for cells with mutant EGFR to IC50 for cells with wildtype EGFR (Mut/WT) [17]: 0.03231
ratio of IC50 for cells with mutant EGFR to IC50 for cells with wildtype EGFR (Mut/WT) [18]: 0.1402
ratio of IC50 for cells with mutant EGFR to IC50 for cells with wildtype EGFR (Mut/WT) [19]: 0.2436
ratio of IC50 for cells with mutant EGFR to IC50 for cells with wildtype EGFR (Mut/WT) [20]: 41.69
ratio of IC50 for cells with mutant EGFR to IC50 for cells with wildtype EGFR (Mut/WT) [21]: 1.282
ratio of IC50 for cells with mutant EGFR to IC50 for cells with wildtype EGFR (Mut/WT) [22]: 0.2085
ratio of IC50 for cells with mutant EGFR to IC50 for cells with wildtype EGFR (Mut/WT) [23]: 0.002518
ratio of IC50 for cells with mutant EGFR to IC50 for cells with wildtype EGFR (Mut/WT) [24]: 0.007985
ratio of IC50 for cells with mutant EGFR to IC50 for cells with wildtype EGFR (Mut/WT) [25]: 0.0005712
ratio of IC50 for cells with mutant EGFR to IC50 for cells with wildtype EGFR (Mut/WT) [26]: 0.0061
SMILES: COc1cc2ncnc(Nc3ccc(F)c(Cl)c3)c2cc1NC(=O)/C=C/CN1CCCCC1 [Dacomitinib]
